One assay has as its target T1, hPPARγ (Homo sapiens, UniProt P37231).
T1 construct: expressed in transfected cells; host or cells: CV-1 cells
T1 sequence (P37231 238-503 limits assumed): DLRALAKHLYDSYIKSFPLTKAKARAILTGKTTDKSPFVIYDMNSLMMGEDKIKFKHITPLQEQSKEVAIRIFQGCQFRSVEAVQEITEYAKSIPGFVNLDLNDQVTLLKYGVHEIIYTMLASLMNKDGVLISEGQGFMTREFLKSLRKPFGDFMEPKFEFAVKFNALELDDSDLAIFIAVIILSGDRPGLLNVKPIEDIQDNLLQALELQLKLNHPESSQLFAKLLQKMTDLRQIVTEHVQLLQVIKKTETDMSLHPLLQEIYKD
In words: cell-based human PPAR-GAL4 chimera luciferase reporter assay in CV-1 cells (PPARγ). The following applies: CV-1 cells transiently transfected with PPAR LBD-GAL4 chimera and luciferase reporter, 24 hours treatment. The protocol: (§1) The compounds were evaluated in a cell-based assay to determine their human PPAR activity. The plasmids for human PPAR-GAL4 chimeras were prepared by fusing amplified cDNAs encoding the LBDs of PPARs to the C-terminal end of the yeast GAL4 DNA binding domain. CV-1 cells were grown and transiently tranfected with PerFectin (GTS, San Diego, Calif.) according to the manufacturer's protocol along with a luciferase reporter. Eight hours after transfection, 50 μL of cells were replated into 384 well plates (1×10^5 cells/well). Sixteen hours after replating, cells were treated with either compounds or 1% DMSO for 24 hours. Luciferase activity was then assayed with Britelite (Perkin Elmer) following the manufacturer's protocol and measured with either the Perkin Elmer Viewlux or Molecular Devices Acquest.

For a further assay, the target named is T2, hPPARδ (Homo sapiens, UniProt Q03181).
T2 construct: expressed in transfected cells; host or cells: CV-1 cells
T2 sequence (Q03181 211-439 limits assumed): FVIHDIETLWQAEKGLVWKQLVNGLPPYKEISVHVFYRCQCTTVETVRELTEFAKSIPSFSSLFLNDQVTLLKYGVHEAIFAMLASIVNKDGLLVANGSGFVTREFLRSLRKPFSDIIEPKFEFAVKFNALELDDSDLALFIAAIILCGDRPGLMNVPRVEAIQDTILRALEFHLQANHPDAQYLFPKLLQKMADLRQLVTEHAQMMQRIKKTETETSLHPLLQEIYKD
In words: cell-based human PPAR-GAL4 chimera luciferase reporter assay in CV-1 cells (PPARδ). To be noted: CV-1 cells transiently transfected with PPAR LBD-GAL4 chimera and luciferase reporter, 24 hours treatment. As for the experimental part:
as §1

The next assay has as its target T3, hPPARα (Homo sapiens, UniProt Q07869).
T3 construct: expressed in transfected cells; host or cells: CV-1 cells
T3 sequence (Q07869 239-466 limits assumed): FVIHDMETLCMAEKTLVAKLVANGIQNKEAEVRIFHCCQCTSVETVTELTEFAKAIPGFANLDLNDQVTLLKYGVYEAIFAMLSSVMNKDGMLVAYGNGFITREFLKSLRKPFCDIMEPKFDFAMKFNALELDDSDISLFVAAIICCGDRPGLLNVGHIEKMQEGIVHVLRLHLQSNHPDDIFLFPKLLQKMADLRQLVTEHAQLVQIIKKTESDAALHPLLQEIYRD
The experiment in a line: cell-based human PPAR-GAL4 chimera luciferase reporter assay in CV-1 cells (PPARα). To be noted: CV-1 cells transiently transfected with PPAR LBD-GAL4 chimera and luciferase reporter, 24 hours treatment; read-out: hPPAPα (EC50). As for the experimental part: as §1
Background: Reporter assays use an easily measured gene product as a stand-in for the process of interest.

Take `CCc1cnc(N(CCCOc2cccc(CC(=O)O)c2)Cc2ccc(C(F)(F)F)cc2C(F)(F)F)nc1`: the EC50 on hPPARγ, at hPPARδ and at hPPARα was less than 1 µM throughout.
In the case of `O=C(O)Cc1cccc(OCCCN(Cc2ccc(C(F)(F)F)cc2)c2nc3ccccc3s2)c1`, the EC50 at hPPARγ, on hPPARδ and on hPPARα was less than 1 µM in each case.
For the molecule `O=C(O)c1ccc2ccccc2c1OCCCN(Cc1ccc(C(F)(F)F)cc1)c1nc2ccccc2s1`, the EC50 (as a rule, the concentration giving half of the maximal effect) was less than 1 µM at hPPARγ, greater than 100 µM on hPPARδ and greater than 100 µM at hPPARα.
With `CCCCN(CCCOc1c(C(=O)O)ccc2ccccc12)c1ccccn1`, the EC50 was less than 1 µM on hPPARγ, greater than 100 µM at hPPARδ and greater than 100 µM on hPPARα.
For the molecule `CCCCN(CCCOc1c(C(=O)O)ccc2ccccc12)c1ncc(CC)cn1`, the values for the EC50 on hPPARγ, at hPPARδ and on hPPARα were less than 1 µM, greater than 100 µM and greater than 100 µM, respectively.
With `CCCCN(CCCOc1c(C(=O)O)ccc2ccccc12)c1nc2ccccc2o1`, the EC50 was 1 to 100 µM at hPPARγ, greater than 100 µM at hPPARδ and greater than 100 µM on hPPARα.
Turning to `CCCCN(CCCOc1cccc(CC(=O)O)c1)c1nc2ccccc2s1`, the EC50 at hPPARγ is greater than 100 µM; on hPPARδ, 1 to 100 µM; on hPPARα, 1 to 100 µM.
Regarding `CCCCN(CCCOc1cccc(CC(=O)O)c1)c1ccccn1`, the EC50 on hPPARγ is less than 1 µM; on hPPARδ, 1 to 100 µM; at hPPARα it was greater than 100 µM.
As to `CCc1cnc(N(CCCOc2c(C(=O)O)ccc3ccccc23)Cc2ccc(C(F)(F)F)cc2C(F)(F)F)nc1`, the EC50 on hPPARγ was less than 1 µM; at hPPARδ it was greater than 100 µM; on hPPARα, 1 to 100 µM.
The matching figures for `CCCCN(CCCOc1cccc(CC(=O)O)c1)c1nc2ccccc2o1`: greater than 100 µM, 1 to 100 µM and 1 to 100 µM.
The matching figures for `CCc1cnc(N(CCCOc2cc3ccccc3cc2C(=O)O)Cc2ccc(C(F)(F)F)cc2C(F)(F)F)nc1`: less than 1 µM, greater than 100 µM and 1 to 100 µM.
Taken in the same sequence, the figures for `O=C(O)Cc1cccc(OCCCN(Cc2ccc(C(F)(F)F)cc2C(F)(F)F)c2ccccn2)c1` were less than 1 µM, less than 1 µM and greater than 100 µM.
With `O=C(O)Cc1cccc(OCCCN(Cc2ccc(C(F)(F)F)cc2C(F)(F)F)c2nc3ccccc3s2)c1`, the EC50 at hPPARγ is less than 1 µM; at hPPARδ, 1 to 100 µM; on hPPARα, greater than 100 µM.
The matching figures for `CCc1cnc(N(CCCOc2ccc3cc(C(=O)O)ccc3c2)Cc2ccc(C(F)(F)F)cc2C(F)(F)F)nc1`: greater than 100 µM, greater than 100 µM and greater than 100 µM.
Take `O=C(O)Cc1cccc(OCCCN(Cc2ccc(C(F)(F)F)cc2C(F)(F)F)c2nc3ccccc3o2)c1`: the figures for the EC50 at hPPARγ, at hPPARδ and at hPPARα were less than 1 µM, 1 to 100 µM and greater than 100 µM, respectively.
`CCCCN(CCCOc1c(C(=O)O)ccc2ccccc12)c1nc2ccccc2s1`: the EC50 on hPPARγ was 1 to 100 µM; on hPPARδ, 1 to 100 µM; on hPPARα it was greater than 100 µM.
Turning to `O=C(O)c1ccc2ccccc2c1OCCCN(Cc1ccc(C(F)(F)F)cc1C(F)(F)F)c1nc2ccccc2o1`, the EC50 at hPPARγ was less than 1 µM; at hPPARδ it was greater than 100 µM; at hPPARα, greater than 100 µM.
Take `CCCCN(CCCOc1cccc(CC(=O)O)c1)c1ncc(CC)cn1`: the EC50 was less than 1 µM on hPPARγ, 1 to 100 µM at hPPARδ and greater than 100 µM at hPPARα.

Source of the values: patent publication US20050070532A1, “Aryl compounds as modulators of PPARS and methods of treating metabolic disorders” (priority 2003, published 2005).
